Reference: ChEMBL document CHEMBL1201862, “PubChem BioAssay data set” (2004)
Activity calls are given as the source filed them.

Experiments:
[1] = target: T1, Sentrin-specific protease 8 (Homo sapiens, UniProt Q96LD8); assay type: functional
T1 sequence (Q96LD8 whole entry): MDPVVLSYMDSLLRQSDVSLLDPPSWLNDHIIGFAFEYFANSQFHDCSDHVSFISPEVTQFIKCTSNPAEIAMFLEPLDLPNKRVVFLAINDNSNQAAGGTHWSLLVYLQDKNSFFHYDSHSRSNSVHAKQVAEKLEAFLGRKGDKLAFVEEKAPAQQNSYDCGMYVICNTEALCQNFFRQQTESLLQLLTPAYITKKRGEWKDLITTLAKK

[2] = target: T1, Sentrin-specific protease 8; assay type: functional; remark: listed apart in the source
[3] = target: ADP-ribosylation factor GTPase-activating protein 1 (Rattus norvegicus, UniProt Q62848); experiment: Fluorescence polarization-based biochemical high throughput dose response screening assay to identify inhibitors of ADP-ribosylation factor GTPase activating protein 1 (ARFGAP1).; assay type: functional
[4] = HEK293T cell cytotoxicity, dose response, cytotoxicity control for HIV Vif inhibitor project, cherry-picks (AID 652208); assay type: functional, cell-based
[5] = target: Nuclear receptor subfamily 5 group A member 2 (Homo sapiens, UniProt O00482); assay type: functional, cell-based;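 also: HEK293T cells transfected with LRH-1 and a StAR promoter luciferase reporter; potency for inhibitors that lower LRH-1 driven reporter light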
[6] = StAR promoter reporter inhibition counter-screen, dose response, counter-screen for LRH-1 inverse agonist project, cell-based, luminescence, luciferase reporter (AID 651969); assay type: functional
Steroidogenic factor 1 = Steroidogenic factor 1 (Homo sapiens, UniProt Q13285); experiment: Counterscreen for inverse agonists of the liver receptor homolog-1 (LRH-1; NR5A2): Luminescence-based cell-based high throughput dose response assay to identify inverse agonists of the Steroidogenic Factor 1 Nuclear Receptor (SF1; NR5A1).; assay type: functional
[7] = target: T2, Alkaline phosphatase, tissue-nonspecific isozyme (Homo sapiens, UniProt P05186); experiment: TNAP enzyme activators, dose response, selectivity assay for human IAP activator project, biochemical, TNAP isozyme, human IAP uHTS hits (AID 488886); assay type: functional;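 also: potency of compounds raising TNAP activity as a selectivity check on IAP activators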
T2 sequence (P05186 whole entry): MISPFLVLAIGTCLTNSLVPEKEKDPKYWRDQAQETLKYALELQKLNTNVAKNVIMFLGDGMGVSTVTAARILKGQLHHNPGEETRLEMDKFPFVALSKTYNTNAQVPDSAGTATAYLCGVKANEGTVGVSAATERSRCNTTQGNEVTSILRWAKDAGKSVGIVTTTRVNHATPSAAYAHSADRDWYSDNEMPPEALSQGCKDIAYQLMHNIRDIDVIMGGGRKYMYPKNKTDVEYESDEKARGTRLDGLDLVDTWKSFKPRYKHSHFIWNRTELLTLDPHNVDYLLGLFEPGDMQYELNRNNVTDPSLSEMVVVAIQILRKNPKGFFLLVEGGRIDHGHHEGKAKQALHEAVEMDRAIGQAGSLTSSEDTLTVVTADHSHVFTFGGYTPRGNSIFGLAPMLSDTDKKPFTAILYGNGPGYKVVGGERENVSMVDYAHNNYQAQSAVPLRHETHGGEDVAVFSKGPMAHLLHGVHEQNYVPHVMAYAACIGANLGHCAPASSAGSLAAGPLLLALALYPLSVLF

[8] = target: Intestinal-type alkaline phosphatase (Mus musculus, UniProt P24822); experiment: PubChem AID 488875; assay type: functional
[9] = target: T3, Intestinal-type alkaline phosphatase (Homo sapiens, UniProt P09923); experiment: human intestinal alkaline phosphatase activators, dose response, biochemical, luminescence, uHTS hits (AID 463120); assay type: functional
Albumin = Albumin (Bos taurus, UniProt P02769); experiment: Counterscreen for inhibitors of T-cell receptor (TCR)-CD3 interaction: Fluorescence-based biochemical high throughput dose response assay to identify inhibitors of T-cell receptor (TCR)-CD3 interaction using a TAMRA-labeled BSA probe.; assay type: functional
[10] = target: T3, Intestinal-type alkaline phosphatase; experiment: human IAP activators, dose response, biochemical, luminescent, uHTS hits, set 2 (AID 488817); assay type: functional;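 also: potency of activators that raise enzyme activity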
cells = assay type: functional, cell-based; conditions: HEK-CNG
Galanin receptor type 3 = Galanin receptor type 3 (Homo sapiens, UniProt O60755); experiment: Fluorescence-based cell-based primary high throughput dose response assay to identify antagonists of the Galanin Receptor 3 (GalR3).; assay type: functional
[11] = Keap1 Kelch-Nrf2 peptide binding inhibitors, dose response, biochemical, fluorescence polarization, dry powder, set 3 (AID 651806)
Keap1/Nrf2 = Keap1/Nrf2 (Homo sapiens, UniProt Q14145); experiment: Keap1-Nrf2 protein-protein interaction inhibitors, dose response, biochemical, fluorescence polarization, cherry-picked samples (AID 588683)
Beta Lactamase [12] = target: T4, Beta Lactamase (Pseudomonas aeruginosa, UniProt Q932Y6); experiment: VIM-2 metallo-beta-lactamase inhibition constant, late-stage follow-up, mechanism study, biochemical, probe results, panel member Nitrocefin-based IMP1 Inhibition Counterscreen (AID 2128)
Beta-lactamase [13] = target: T5, Beta-lactamase (Salmonella choleraesuis (strain SC-B67), UniProt Q5J463); experiment: Late stage results from the probe development efforts to identify selective inhibitors of VIM-2 metallo-beta-lactamase: probe results. Panel member name: Nitrocefin-based TEM-1 Inhibition Counterscreen
Beta-lactamase [14] = target: T6, Beta-lactamase (Pseudomonas aeruginosa, UniProt Q79MP6); experiment: IMP-1 metallo-beta-lactamase inhibitors, dose response, selectivity assay for VIM-2 inhibitor project, biochemical, epi-absorbance (AID 1920)
Beta-lactamase [15] = target: T6, Beta-lactamase; experiment: […] counterscreen for selective VIM-2 inhibitors: dose response biochemical high throughput screening assay to identify inhibitors of IMP-1 metallo-beta-lactamase.
Beta-lactamase [16] = target: T5, Beta-lactamase; experiment: Epi-absorbance-based counterscreen for selective VIM-2 inhibitors: dose response biochemical high throughput screening assay to identify inhibitors of TEM-1 serine-beta-lactamase.
Beta Lactamase [17] = target: T4, Beta Lactamase; experiment: VIM-2 metallo-beta-lactamase inhibition constant, late-stage follow-up, mechanism study, biochemical, probe results, panel member Nitrocefin-based VIM2 Inhibition Assay (AID 2128)
[18] = target: T7, Small ubiquitin-related modifier 1 (Homo sapiens, UniProt P63165); experiment: inhibitors of SUMO1 partner interactions, dose response, biochemical, FRET (AID 624383); assay type: functional; conditions: read-out: IC50_Mean
[19] = Jurkat T cell cytotoxicity, dose response, cytotoxicity control for P. falciparum gametocyte viability project, luminescence (AID 1117277); assay type: functional, cell-based;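 also: potency reflects loss of cellular ATP meaning fewer viable cells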
[20] = target: T7, Small ubiquitin-related modifier 1; experiment: inhibitors of SUMO1 peptide binding, dose response, biochemical, fluorescence polarization, uHTS hits (AID 624382); assay type: functional; conditions: read-out: IC50_Mean
[21] = P. falciparum late gametocyte killing, dose response, luminescence (AID 1117278); assay type: functional, cell-based;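 also: gametocytes exposed to compound for 24 hours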

T5 sequence (Q5J463 whole entry): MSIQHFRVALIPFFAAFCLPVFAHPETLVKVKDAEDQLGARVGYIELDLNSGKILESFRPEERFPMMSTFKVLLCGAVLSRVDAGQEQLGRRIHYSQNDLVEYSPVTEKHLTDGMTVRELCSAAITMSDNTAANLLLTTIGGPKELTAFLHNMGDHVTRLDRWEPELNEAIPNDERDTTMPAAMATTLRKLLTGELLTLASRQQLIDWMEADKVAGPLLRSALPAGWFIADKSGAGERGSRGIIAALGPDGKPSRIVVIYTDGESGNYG
T3 sequence (P09923 whole entry): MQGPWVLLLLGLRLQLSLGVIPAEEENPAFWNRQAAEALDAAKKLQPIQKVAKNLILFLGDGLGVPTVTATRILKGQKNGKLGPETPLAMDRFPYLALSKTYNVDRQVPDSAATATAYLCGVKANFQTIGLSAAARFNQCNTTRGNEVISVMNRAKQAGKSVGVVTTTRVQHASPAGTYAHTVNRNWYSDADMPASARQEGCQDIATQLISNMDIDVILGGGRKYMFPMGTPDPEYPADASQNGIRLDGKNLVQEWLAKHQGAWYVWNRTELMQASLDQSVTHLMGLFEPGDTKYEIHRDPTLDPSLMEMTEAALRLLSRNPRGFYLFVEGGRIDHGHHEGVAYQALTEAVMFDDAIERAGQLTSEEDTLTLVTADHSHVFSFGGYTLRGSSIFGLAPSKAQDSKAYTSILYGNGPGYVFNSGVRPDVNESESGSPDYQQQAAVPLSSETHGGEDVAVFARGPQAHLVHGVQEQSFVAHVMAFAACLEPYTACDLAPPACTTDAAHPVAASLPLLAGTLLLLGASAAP
T6 sequence (Q79MP6 whole entry): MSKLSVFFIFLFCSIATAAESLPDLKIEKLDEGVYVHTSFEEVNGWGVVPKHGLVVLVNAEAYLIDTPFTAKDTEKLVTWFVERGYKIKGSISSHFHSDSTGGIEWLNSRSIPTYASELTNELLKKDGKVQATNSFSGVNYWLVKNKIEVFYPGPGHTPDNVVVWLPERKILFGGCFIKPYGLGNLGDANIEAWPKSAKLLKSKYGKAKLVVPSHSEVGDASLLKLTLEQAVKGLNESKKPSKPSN
T4 sequence (Q932Y6 whole entry): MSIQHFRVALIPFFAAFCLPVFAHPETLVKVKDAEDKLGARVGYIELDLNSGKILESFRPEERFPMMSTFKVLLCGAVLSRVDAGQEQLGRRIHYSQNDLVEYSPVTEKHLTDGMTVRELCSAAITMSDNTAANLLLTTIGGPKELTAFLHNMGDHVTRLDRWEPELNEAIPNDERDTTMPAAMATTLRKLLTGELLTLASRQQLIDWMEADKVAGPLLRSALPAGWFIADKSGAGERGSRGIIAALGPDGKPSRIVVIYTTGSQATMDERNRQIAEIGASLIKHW
T7 sequence (P63165 whole entry): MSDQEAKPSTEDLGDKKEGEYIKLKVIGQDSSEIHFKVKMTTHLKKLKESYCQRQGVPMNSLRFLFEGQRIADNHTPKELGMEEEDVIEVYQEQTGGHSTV
Albumin, sequence (P02769 whole entry): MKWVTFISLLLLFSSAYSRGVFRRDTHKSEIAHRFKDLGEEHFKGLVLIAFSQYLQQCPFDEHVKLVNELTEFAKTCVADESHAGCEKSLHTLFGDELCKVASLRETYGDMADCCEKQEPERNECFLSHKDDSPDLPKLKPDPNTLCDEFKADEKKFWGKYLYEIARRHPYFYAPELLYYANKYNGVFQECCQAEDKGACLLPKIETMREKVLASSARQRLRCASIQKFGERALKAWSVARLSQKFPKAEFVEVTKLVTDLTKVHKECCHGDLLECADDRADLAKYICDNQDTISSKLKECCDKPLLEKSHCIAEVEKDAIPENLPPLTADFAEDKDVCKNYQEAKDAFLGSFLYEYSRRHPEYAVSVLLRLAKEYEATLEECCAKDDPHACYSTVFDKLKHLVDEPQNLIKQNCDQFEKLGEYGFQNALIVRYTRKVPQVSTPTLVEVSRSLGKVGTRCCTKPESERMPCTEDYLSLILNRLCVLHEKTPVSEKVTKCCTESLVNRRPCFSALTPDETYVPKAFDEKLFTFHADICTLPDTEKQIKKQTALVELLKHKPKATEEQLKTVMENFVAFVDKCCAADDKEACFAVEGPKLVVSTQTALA
Keap1/Nrf2, sequence (Q16236 whole entry): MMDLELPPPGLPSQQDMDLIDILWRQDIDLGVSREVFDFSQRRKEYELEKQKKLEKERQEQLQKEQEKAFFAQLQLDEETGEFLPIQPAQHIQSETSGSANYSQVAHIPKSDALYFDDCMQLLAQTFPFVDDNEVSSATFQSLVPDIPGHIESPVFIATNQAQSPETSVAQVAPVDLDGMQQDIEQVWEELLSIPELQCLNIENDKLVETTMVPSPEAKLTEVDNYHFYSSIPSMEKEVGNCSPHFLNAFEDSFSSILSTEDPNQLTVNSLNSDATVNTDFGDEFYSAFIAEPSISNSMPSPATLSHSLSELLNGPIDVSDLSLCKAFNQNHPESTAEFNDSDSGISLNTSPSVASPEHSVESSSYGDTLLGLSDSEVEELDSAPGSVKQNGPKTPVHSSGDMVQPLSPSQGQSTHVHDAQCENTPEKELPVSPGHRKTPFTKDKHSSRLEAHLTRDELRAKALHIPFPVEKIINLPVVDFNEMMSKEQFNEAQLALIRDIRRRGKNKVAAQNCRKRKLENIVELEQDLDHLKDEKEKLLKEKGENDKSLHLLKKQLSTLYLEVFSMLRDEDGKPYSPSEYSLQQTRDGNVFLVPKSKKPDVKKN
Keap1/Nrf2, sequence (Q14145 whole entry): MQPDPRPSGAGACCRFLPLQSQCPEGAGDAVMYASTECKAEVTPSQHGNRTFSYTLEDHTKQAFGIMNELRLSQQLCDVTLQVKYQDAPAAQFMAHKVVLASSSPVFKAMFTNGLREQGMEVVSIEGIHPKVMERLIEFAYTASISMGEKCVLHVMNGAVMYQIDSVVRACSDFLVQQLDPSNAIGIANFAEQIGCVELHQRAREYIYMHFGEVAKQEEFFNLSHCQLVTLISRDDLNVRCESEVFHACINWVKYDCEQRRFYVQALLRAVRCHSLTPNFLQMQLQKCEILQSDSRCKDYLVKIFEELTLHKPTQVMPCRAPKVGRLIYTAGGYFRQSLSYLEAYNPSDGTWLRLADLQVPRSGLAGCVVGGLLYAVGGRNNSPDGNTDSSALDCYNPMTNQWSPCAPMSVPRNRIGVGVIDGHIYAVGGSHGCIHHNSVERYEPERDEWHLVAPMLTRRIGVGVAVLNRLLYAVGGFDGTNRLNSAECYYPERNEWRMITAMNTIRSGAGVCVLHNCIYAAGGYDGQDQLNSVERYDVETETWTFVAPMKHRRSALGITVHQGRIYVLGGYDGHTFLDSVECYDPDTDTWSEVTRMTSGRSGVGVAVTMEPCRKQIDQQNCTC
Nuclear receptor subfamily 5 group A member 2, sequence (O00482 whole entry): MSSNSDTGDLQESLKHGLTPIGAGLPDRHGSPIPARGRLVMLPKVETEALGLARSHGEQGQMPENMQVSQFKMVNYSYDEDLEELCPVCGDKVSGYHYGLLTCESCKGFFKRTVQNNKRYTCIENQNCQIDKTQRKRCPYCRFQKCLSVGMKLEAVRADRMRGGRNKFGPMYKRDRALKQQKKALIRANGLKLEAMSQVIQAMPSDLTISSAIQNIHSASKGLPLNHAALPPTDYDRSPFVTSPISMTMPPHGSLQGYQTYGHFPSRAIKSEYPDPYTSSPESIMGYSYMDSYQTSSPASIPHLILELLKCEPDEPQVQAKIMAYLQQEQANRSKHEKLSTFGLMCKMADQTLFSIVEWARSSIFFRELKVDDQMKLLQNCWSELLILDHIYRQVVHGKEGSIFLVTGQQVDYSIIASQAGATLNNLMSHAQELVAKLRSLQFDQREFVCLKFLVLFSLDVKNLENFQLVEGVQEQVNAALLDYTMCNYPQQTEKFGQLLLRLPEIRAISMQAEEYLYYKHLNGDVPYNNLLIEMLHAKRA
Galanin receptor type 3, sequence (O60755 whole entry): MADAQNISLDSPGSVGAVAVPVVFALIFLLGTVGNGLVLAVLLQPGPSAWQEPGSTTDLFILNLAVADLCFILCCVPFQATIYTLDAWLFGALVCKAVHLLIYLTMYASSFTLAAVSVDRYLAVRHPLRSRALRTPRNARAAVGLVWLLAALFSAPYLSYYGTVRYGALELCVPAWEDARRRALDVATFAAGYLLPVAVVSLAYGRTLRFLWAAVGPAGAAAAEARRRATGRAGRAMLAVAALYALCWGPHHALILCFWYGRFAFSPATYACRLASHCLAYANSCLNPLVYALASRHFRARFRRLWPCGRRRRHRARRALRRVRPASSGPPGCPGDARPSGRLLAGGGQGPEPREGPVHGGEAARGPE
ADP-ribosylation factor GTPase-activating protein 1, sequence (Q62848 whole entry): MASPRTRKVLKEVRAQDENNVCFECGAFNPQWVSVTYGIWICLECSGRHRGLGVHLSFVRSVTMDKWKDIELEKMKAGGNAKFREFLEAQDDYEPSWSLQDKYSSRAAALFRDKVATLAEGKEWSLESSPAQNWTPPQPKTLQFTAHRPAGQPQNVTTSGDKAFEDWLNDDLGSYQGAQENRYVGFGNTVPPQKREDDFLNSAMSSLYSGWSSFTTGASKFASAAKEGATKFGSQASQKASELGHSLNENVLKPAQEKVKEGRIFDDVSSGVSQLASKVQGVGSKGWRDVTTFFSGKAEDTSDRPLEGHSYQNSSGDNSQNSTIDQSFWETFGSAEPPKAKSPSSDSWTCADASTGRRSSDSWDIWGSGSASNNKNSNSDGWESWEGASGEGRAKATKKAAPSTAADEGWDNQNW

## O=C(CCS(=O)(=O)Cc1ccccc1F)N1CCc2ccccc2C1
[1]
  IC50: > 100 µM (inactive)
[2]
  IC50: 7.69 µM (active)

## COc1ccc(-n2nc(C(=O)NCC(=O)Nc3cccc(Cl)c3)c3ccccc3c2=O)cc1OC
[3]
  IC50: 83.9 µM (inactive)
[4]
  AC50: 17.4 µM (active)

## O=C(COC(=O)CCN1C(=O)C2CC=CCC2C1=O)NCCc1ccc(F)cc1 (stereo unspecified)
[5]
  IC50: 19.1 µM (inactive)
[6]
  IC50: 35.9 µM (inactive)
Steroidogenic factor 1
  IC50: 2.33 µM (active)

## Cc1ccc(NC(=O)NNC(=O)c2cc3ccccc3cc2O)cc1
[7]
  EC50: 13 µM (active)
[8]
  EC50: > 100 µM (inactive)
[9]
  EC50: 9.83 µM (active)
Albumin
  IC50: > 94.1 µM (inactive)
[10]
  EC50: 14.9 µM (active)

## CC(=O)c1cn(CC(=O)NCCc2c[nH]c3ccccc23)c2ccccc12
cells
  EC50: > 29.9 µM (inactive)
Galanin receptor type 3
  IC50: 2.7 µM (active)

## Cc1ccc(S(=O)(=O)Nc2cc(C(C(=O)OC(C)C)C(=O)C(F)(F)F)c(O)c3ccccc23)c(C)c1 (stereo unspecified)
[11]
  AC50: 74.9 µM (active)
Keap1/Nrf2
  AC50: 2.67 µM (active)

## O=c1[nH]c2c(s1)C(c1cccnc1)C1C3CCC(C3)C1S2 (stereo unspecified)
Beta Lactamase [12]
  IC50: > 60 µM (inactive)
Beta-lactamase [13]
  IC50: > 60 µM (active)
Beta-lactamase [14]
  IC50: > 59.6 µM (inactive)
Beta-lactamase [15]
  IC50: > 59.6 µM (inactive)
Beta-lactamase [16]
  IC50: > 59.6 µM (inactive)
Beta Lactamase [17]
  IC50: 223 nM (active)

## Cc1ccc(N2C(=S)SC3CS(=O)(=O)CC32)cc1 (stereo unspecified)
[18]
  IC50: 100 µM (inactive)
[19]
  IC50: > 83.2 µM (inactive)
[20]
  IC50: > 66.6 µM (inactive)
[21]
  IC50: > 109 µM (inactive)
